Test results as given in EP4692090A1 (Shanghai Fosun Pharmaceutical (Group) Co., Ltd., priority 2023, dated 2024).
pIC50: −log10 of the molar value. Where two headings read alike, the source gives them in different places.

Legend:
ATR kinase = molecular target: T1, ATR kinase (Homo sapiens, UniProt Q13535); assay: Inhibitory effect on ATR kinase activity (Caliper mobility shift, FAM-labeled RAD17 peptide substrate); format: biochemical
T1 construct: purchased Eurofins 14-953
Description: Test Example 1: Inhibitory effect of the compounds of the present disclosure on ATR kinase activity
Test compounds to be tested were serially diluted with DMSO (maximum concentration 1 µM, 10 concentrations with 3-fold serial dilution) and added to the wells of a 384-well reaction plate (Corning, #4512). 1 nM ATR kinase (Eurofins, #14-953), 5 mM substrate (FAM-labeled RAD17 peptide, FAM-ASELPASQPQPFSAKKK), 5 mM ATP and the compounds with corresponding concentrations reacted in a kinase reaction solution (50 mM HEPES, pH 7.5; 0.0015% Brij-35; 10 mM MnCl2, total volume of 20 µL) at 28°C for 3 hours. The reaction was terminated by adding 30 µL of stop solution (100 mM HEPES, pH 7.5; 0.015% Brij-35; 0.2% Coating Reagent #3, PerkinElmer; 50 mM EDTA). The reaction plate was placed on a Caliper instrument (PerkinElmer) for testing. The relative inhibitory activity of each compound concentration group was calculated using the following formula: % Inhibition = (Conversion rate of the blank control group without compound added - Conversion rate of the test compound group) / (Conversion rate of the blank control group - […]). The IC50 values were calculated using GraphPad analysis and fitted. […] Table 1. Inhibitory effect (IC50) of compounds on ATR kinase activity.

LoVo cells = assay: LoVo cell proliferation assay (CellTiter-Glo); format: cell-based
Description: Test Example 2: LoVo cell proliferation assay
LoVo (ATCC, #CRL-229) cells in logarithmic growth phase were digested, counted, and plated into 96-well cell culture plates at 2,000 cells per well. The plates containing cells were incubated overnight at 37°C in a 5% CO2 incubator, and then test compounds with 3-fold gradient dilutions (maximum concentration: 10 µM, 9 concentrations) were added. DMSO was used as a blank control. After the LoVo cells containing the compounds or DMSO were incubated for an additional 5 days, an equal volume of CellTiter-Glo reagent (Promega, #7573) was added. After incubation at room temperature for 30 minutes, chemiluminescence was read using an Envision 2105 (PerkinElmer). The cell proliferation inhibition rate (%) for wells treated with each concentration of the compounds was calculated using the following formula. Then, with compound concentration as the horizontal axis and cell proliferation inhibition rate (%) as the vertical axis, GraphPad software was used to plot the data and determine the IC50 values of the test compounds. The results are shown in Table 2, wherein the IC50 ranges are defined as follows: A: ≤ 100 nM; 1000 nM ≥ B > 100 nM; C > 1000 nM.
Cell proliferation inhibition (%) = (1 - luminescence value of compound-treated group / average luminescence value of DMSO blank control group) × 100. Table 2. Inhibitory effect of compounds on LoVo growth

[1] = 1 nM ATR kinase (Eurofins), 28°C for 3 hours, maximum concentration 1 µM, 10 concentrations, read-out: ATR kinase IC50
[2] = LoVo cells, 2,000 cells per well, 5 days incubation, CellTiter-Glo; maximum concentration 10 µM, 9 concentrations; read-out: LoVo IC50
[3] = Homo sapiens, LoVo, 120 h, LoVo cells, 2,000 cells per well, 5 days incubation, CellTiter-Glo; maximum concentration 10 µM, 9 concentrations; read-out: LoVo IC50
[4] = read-out: ATR kinase IC50, 1 nM ATR kinase (Eurofins), 28°C for 3 hours, maximum concentration 1 µM, 10 concentrations
[5] = Homo sapiens, LoVo, 120 h, read-out: LoVo IC50 (nM), LoVo cells, 2,000 cells per well, 5 days incubation, CellTiter-Glo; maximum concentration 10 µM, 9 concentrations

T1 sequence (Q13535 whole entry): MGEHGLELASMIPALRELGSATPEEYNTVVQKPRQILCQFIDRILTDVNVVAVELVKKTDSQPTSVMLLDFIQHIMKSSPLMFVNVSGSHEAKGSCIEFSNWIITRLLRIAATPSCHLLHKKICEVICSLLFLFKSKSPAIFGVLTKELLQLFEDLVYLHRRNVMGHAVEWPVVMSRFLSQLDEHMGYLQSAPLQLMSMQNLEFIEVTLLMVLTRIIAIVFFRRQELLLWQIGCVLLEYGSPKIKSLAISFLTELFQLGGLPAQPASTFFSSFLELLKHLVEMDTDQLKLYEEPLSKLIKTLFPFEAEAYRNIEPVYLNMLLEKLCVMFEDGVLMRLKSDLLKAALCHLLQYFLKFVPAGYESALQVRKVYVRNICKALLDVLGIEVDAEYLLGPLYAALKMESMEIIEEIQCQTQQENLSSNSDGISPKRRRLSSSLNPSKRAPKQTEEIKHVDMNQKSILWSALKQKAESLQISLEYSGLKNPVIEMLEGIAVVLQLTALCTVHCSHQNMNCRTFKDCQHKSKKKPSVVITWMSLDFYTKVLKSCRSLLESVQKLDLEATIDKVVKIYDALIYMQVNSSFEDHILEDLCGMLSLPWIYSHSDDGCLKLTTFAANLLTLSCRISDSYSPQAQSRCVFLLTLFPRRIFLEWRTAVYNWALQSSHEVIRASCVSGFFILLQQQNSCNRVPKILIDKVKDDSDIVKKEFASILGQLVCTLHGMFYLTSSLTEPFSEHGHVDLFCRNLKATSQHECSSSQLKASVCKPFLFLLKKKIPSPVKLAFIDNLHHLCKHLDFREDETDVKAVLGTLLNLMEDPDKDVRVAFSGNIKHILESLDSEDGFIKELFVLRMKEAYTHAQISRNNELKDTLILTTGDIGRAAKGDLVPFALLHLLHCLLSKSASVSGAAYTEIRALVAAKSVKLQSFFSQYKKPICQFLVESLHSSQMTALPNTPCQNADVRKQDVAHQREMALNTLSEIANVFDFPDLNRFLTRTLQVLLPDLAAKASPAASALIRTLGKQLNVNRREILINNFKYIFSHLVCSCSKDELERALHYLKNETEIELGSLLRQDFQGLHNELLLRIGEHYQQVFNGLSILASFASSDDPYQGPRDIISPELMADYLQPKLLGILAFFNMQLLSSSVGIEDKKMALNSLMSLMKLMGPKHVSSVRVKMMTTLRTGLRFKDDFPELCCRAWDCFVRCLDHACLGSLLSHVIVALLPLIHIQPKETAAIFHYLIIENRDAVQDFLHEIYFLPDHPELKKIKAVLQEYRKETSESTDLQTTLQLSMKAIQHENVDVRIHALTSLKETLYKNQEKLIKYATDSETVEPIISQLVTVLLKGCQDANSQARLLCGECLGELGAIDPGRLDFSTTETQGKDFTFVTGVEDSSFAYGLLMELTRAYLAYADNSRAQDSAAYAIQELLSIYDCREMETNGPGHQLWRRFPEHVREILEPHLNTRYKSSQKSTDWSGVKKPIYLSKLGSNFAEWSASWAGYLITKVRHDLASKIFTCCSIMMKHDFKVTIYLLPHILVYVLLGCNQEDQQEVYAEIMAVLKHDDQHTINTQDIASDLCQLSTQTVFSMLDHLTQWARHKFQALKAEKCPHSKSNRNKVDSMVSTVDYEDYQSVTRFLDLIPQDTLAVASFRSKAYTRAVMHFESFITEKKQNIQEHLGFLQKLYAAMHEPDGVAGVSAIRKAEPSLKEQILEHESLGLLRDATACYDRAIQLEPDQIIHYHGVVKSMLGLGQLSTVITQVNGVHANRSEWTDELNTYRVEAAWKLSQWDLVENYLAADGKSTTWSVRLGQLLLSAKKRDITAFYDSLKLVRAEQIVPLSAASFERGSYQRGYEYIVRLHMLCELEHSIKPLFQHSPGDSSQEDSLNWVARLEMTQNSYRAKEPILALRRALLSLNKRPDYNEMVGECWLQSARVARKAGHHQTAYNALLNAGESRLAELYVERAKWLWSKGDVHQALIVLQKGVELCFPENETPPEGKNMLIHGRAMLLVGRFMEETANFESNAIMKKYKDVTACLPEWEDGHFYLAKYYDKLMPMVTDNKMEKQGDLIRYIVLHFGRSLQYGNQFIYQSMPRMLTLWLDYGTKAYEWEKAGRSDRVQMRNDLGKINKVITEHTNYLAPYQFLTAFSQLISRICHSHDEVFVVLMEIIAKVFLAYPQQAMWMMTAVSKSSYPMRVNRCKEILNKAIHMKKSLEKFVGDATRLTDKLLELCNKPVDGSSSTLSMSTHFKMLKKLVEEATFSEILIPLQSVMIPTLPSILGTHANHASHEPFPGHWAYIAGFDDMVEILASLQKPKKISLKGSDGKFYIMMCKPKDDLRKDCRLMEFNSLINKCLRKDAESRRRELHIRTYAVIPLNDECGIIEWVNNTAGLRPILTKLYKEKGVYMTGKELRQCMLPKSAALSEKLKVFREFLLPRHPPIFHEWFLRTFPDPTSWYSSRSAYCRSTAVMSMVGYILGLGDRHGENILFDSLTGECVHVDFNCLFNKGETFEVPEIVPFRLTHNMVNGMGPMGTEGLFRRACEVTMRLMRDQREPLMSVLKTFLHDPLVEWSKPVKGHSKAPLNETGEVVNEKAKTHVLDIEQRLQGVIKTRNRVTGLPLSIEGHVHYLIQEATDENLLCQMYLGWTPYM
T1 sequence (Q8WXE1 whole entry partner): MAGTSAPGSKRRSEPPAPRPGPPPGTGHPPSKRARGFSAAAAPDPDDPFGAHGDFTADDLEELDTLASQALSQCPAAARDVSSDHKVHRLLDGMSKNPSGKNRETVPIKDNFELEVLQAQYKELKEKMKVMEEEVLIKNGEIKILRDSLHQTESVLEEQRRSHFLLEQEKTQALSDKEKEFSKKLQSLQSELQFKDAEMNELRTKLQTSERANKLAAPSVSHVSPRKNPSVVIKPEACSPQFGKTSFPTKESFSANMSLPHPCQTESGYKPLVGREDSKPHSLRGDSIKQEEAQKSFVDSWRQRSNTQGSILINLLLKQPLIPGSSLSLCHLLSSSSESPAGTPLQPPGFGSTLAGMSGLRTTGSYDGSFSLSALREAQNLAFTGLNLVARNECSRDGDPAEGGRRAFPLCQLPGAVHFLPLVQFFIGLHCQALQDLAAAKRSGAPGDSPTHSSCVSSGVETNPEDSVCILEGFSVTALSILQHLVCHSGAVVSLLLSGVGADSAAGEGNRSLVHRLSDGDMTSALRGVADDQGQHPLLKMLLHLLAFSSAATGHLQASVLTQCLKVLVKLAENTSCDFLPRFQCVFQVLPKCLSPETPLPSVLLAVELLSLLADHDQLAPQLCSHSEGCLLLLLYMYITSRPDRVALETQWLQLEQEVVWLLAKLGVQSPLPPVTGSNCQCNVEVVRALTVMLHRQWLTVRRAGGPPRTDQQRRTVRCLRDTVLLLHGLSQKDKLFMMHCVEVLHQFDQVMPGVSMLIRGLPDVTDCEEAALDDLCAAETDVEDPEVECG

Compound	pIC50 (ATR kinase; [1])	pIC50 (LoVo cells; [3])	also measured
C[C@@H]1COCCN1c1cc2c3c(nn(-c4cc[nH]n4)c3n1)CCN(C1CC(C(F)(F)F)C1)C2 (single isomer, unassigned) [Compound 13B]	6.00 to 7.00	–	pIC50 (LoVo cells; [2]): < 6.00
C[C@@H]1COCCN1c1cc2c3c(nn(-c4cc[nH]n4)c3n1)CCN(C(=O)C1CC3(C1)CC3(F)F)C2 (single isomer, unassigned) [Compound 20A]	7.00 to 8.00	< 6.00	–
CC1c2cc(N3CCOC[C@H]3C)nc3c2c(nn3-c2cc[nH]n2)CCN1C1CC1 (single isomer, unassigned) [Compound 31A]	> 8.00	> 7.00	–
CC1c2cc(N3CCOC[C@H]3C)nc3c2c(nn3-c2cc[nH]n2)CCN1C1COC1 (single isomer, unassigned) [Compound 32A]	7.00 to 8.00	6.00 to 7.00	–
CC1c2cc(N3CCOC[C@H]3C)nc3c2c(nn3-c2cc[nH]n2)CCN1C1COC1 (single isomer, unassigned) [Compound 32B]	7.00 to 8.00	–	pIC50 (LoVo cells; [2]): > 7.00
CC1c2cc(N3CCOC[C@H]3C)nc3c2c(nn3-c2cc[nH]n2)CCN1C(=O)C1(C(F)(F)F)CC1 (single isomer, unassigned) [Compound 33A]	–	–	pIC50 (ATR kinase; [4]): > 8.00; IC50 (LoVo cells; [5]): < 100 nM
CC1c2cc(N3CCOC[C@H]3C)nc3c2c(nn3-c2cc[nH]n2)CCN1C(=O)C1(C(F)(F)F)CC1 (single isomer, unassigned) [Compound 33B]	–	–	pIC50 (ATR kinase; [4]): 6.00 to 7.00; pIC50 (LoVo cells; read-out: LoVo IC50; LoVo cells, 2,000 cells per well, 5 days incubation, CellTiter-Glo; maximum concentration 10 µM, 9 concentrations): 6.00 to 7.00
CC1c2cc(N3CCOC[C@H]3C)nc3c2c(nn3-c2cc[nH]n2)CCN1C (single isomer, unassigned) [Compound 35A]	> 8.00	> 7.00	–
CC1c2cc(N3CCOC[C@H]3C)nc3c2c(nn3-c2cc[nH]n2)CCN1C (single isomer, unassigned) [Compound 35B]	> 8.00	–	–
CC(C)N1CCc2nn(-c3cc[nH]n3)c3nc(N4CCOC[C@H]4C)cc(c23)C1C (single isomer, unassigned) [Compound 36B]	> 8.00	–	pIC50 (LoVo cells; [2]): > 7.00
CC1c2cc(N3CCOC[C@H]3C)nc3c2c(nn3-c2cc[nH]n2)CCN1S(=O)(=O)C1CC1 (single isomer, unassigned) [Compound 37A]	7.00 to 8.00	> 7.00	–
CC1c2cc(N3CCOC[C@H]3C)nc3c2c(nn3-c2cc[nH]n2)CCN1S(=O)(=O)C1CC1 (single isomer, unassigned) [Compound 37B]	> 8.00	–	pIC50 (LoVo cells; [2]): > 7.00
C[C@@H]1COCCN1c1cc2c3c(n1)c(-c1cc[nH]n1)nn3CCN2 [Compound 61, (R)-4-(1-(1H-pyrazol-3-yl)-4,5-dihydro-3H-2,2a,5,8-tetraazaacenaphthen-7-yl)-3-methylmorpholine]	5.60 to 6.00	–	–
C[C@@H]1COCCN1c1cc2c3c(nn(-c4cc[nH]n4)c3n1)CCC(=O)N2C12CC(C1)C2 [Compound 76, (R)-6-(bicyclo[1.1.1]pentan-1-yl)-4-(3-methylmorpholinyl)-2-(1H-pyrazol-3-yl)-2,6,8,9-tetrahydro-7H-1,2,3,6-tetraazabenzo[cd]azulene-7-one]	–	–	IC50 (LoVo cells; [5]): < 100 nM
C[C@@H]1COCCN1c1cc2c3c(nn(-c4cc[nH]n4)c3n1)CCC(=O)N2C1(CF)CC1 [Compound 80, (R)-6-(1-(fluoromethyl)cyclopropyl)-4-(3-methylmorpholinyl)-2-(1H-pyrazol-3-yl)-2,6,8,9-tetrahydro-7H-1,2,3,6-tetraazabenzo[cd]azulene-7-one]	–	–	IC50 (LoVo cells; [5]): < 100 nM
C[C@@H]1COCCN1c1cc2c3c(n1)c(-c1cc[nH]n1)nn3CCC(=O)N2C1CC2(C1)CC(C)(O)C2 (stereo partly drawn) [Compound 94, (R)-6-(6-hydroxy-6-methylspiro[3.3]hept-2-yl)-4-(3-methylmorpholinyl)-2-(1H-pyrazol-3-yl)-8,9-dihydro-1,3,6,9a-tetraazabenzo[cd]azulene-7(6H)-one]	–	–	pIC50 (ATR kinase; [4]): 7.00 to 8.00
C[C@@H]1COCCN1c1cc2c3c(n1)c(-c1cc[nH]n1)nn3CCC(=O)N2[C@@H](C)CC(F)(F)F [Compound 111A, 4-((R)-3-methylmorpholino)-2-(1H-pyrazol-3-yl)-6-((S)-4,4,4-trifluorobutan-2-yl)-8,9-dihydro-1,3,6,9a-tetraazabenzo[cd]azulene-7(6H)-one]	–	6.00 to 7.00	–
C[C@@H]1COCCN1c1cc2c3c(n1)c(-c1cc[nH]n1)nn3CCC(=O)N2[C@H](C)CC(F)(F)F [Compound 111B, 4-((R)-3-methylmorpholino)-2-(1H-pyrazol-3-yl)-6-((R)-4,4,4-trifluorobutan-2-yl)-8,9-dihydro-1,3,6,9a-tetraazabenzo[cd]azulene-7(6H)-one]	–	6.00 to 7.00	–
C[C@@H]1COCCN1c1cc2c3c(nn(-c4cc[nH]n4)c3n1)CCN(C)C2=O [Compound 137, (R)-7-methyl-4-(3-methylmorpholinyl)-2-(1H-pyrazol-3-yl)-2,7,8,9-tetrahydro-6H-1,2,3,7-tetraazabenzo[cd]azulene-6-one]	–	–	pIC50 (ATR kinase; [4]): 7.00 to 8.00
C[C@@H]1COCCN1c1cc2c3c(nn(-c4cc[nH]n4)c3n1)CCN(S(=O)(=O)C1CC1)C2C1CC1 (stereo partly drawn) [Compound 143, (3R)-4-(6-cyclopropyl-7-(cyclopropylsulfonyl)-2-(1H-pyrazol-3-yl)-6,7,8,9-tetrahydro-2H-1,2,3,7-tetraazabenzo[cd]-azulen-4-yl)-3-methylmorpholine]	–	6.00 to 7.00	–

Now from value to compound, other results behind:

pIC50 (ATR kinase; [1])	pIC50 (LoVo cells; [3])	Compound	also measured
7.00 to 8.00	–	C[C@@H]1COCCN1c1cc2c3c(nn(-c4cc[nH]n4)c3n1)CCN(C1CC(C(F)(F)F)C1)C2 (single isomer, unassigned) [Compound 13A]	pIC50 (LoVo cells; [2]): 6.00 to 7.00
7.00 to 8.00	–	C[C@@H]1COCCN1c1cc2c3c(nn(-c4cc[nH]n4)c3n1)CCN(C(=O)C1CC3(C1)CC3(F)F)C2 (single isomer, unassigned) [Compound 20B]	pIC50 (LoVo cells; [2]): < 6.00
> 8.00	–	CC1c2cc(N3CCOC[C@H]3C)nc3c2c(nn3-c2cc[nH]n2)CCN1C1CC1 (single isomer, unassigned) [Compound 31B]	pIC50 (LoVo cells; [2]): > 7.00
> 8.00	6.00 to 7.00	CC(C)N1CCc2nn(-c3cc[nH]n3)c3nc(N4CCOC[C@H]4C)cc(c23)C1C (single isomer, unassigned) [Compound 36A]	–
–	6.00 to 7.00	C[C@@H]1COCCN1c1cc2c3c(n1)c(-c1cc[nH]n1)nn3CCN2S(C)(=O)=O [Compound 64]	–
–	6.00 to 7.00	C[C@@H]1COCCN1c1cc2c3c(n1)c(-c1cc[nH]n1)nn3CCC2(C)O (stereo partly drawn) [Compound 71, 6-methyl-4-((R)-3-methylmorpholino)-2-(1H-pyrazol-3-yl)-7,8-dihydro-6H-pyrazolo[4,5,1-ij][1, 7]naphthyridin-6-ol]	–
7.00 to 8.00	–	CC(C(N)=O)N1C(=O)CCn2nc(-c3cc[nH]n3)c3nc(N4CCOC[C@H]4C)cc1c32 (stereo partly drawn) [Compound 104, 2-(4-((R)-3-methylmorpholino)-7-oxo-2-(1H-pyrazol-3-yl)-8,9-dihydro-1,3,6,9a-tetraazabenzo[cd]azulene-6(7H)-yl)propanamide]	–
–	> 7.00	C[C@@H]1COCCN1c1cc2c3c(nn(-c4cc[nH]n4)c3n1)CCOC2C(F)F (stereo partly drawn) [Compound 148, 6-(difluoromethyl)-4-((R)-3-methylmorpholino)-2-(1H-pyrazol-3-yl)-2,6,8,9-tetrahydro-7-oxa-1,2,3-triazabenzo[cd]azulene]	–
–	6.00 to 7.00	CC1c2cc(N3CCOC[C@H]3C)nc3c2c(nn3-c2cc[nH]n2)CCN1S(N)(=O)=O (stereo partly drawn) [Compound 150, 6-methyl-4-((R)-3-methylmorpholino)-2-(1H-pyrazol-3-yl)-2,6,8,9-tetrahydro-7H-1,2,3,7-tetraazabenzene[cd]azulene-7-sulfonamide]	–
